From patent US20250136581A1, “SUBSTITUTED TRIAZOLE DERIVATIVE, PREPARATION METHOD THEREFOR, PHARMACEUTICAL COMPOSITION THEREOF, AND USE THEREOF” (SHANGHAI SIMR BIOTECHNOLOGY CO., LTD., priority 2021, published 2025)
Like-named read-outs stand apart in the source and are kept apart here.

What was measured:
human α2β3γ2 receptors = human α2β3γ2 receptors (Homo sapiens (Human), UniProt P18507+P47869); test: 3H-flunitrazepam competition binding, human α2β3γ2 GABAA receptor; details: HEK293 cell membranes, 1 nM 3H-flunitrazepam; read-out: Ki α2
Description: (§1) The affinity of the compound to each subtype of GABAA receptor was determined by competing for the binding of ^3H-flunitrazepam to HEK293 cells stably expressing human α1β3γ2, α2β3γ2, α3β3γ2, and α5β3γ2 receptors.
(§2) The cells were suspended in 50 mM Tris-HCl buffer (pH=7.4), homogenized 10 times on ice with a homogenizer for 20 seconds, and centrifuged at 1000 g for 10 minutes at 4° C. The supernatant was collected, and the above steps were repeated. The supernatant was centrifuged at 4° C. (33800 g; Thermo, rotor: A27-8×50) for 60 minutes, and the precipitate was resuspended in Tris buffer (50 mM Tris-HCl, 10 mM MgCl2, 0.5 mM EDTA, 10% glycerol). Protein was measured (BCA method, Pierce), and 1 mL aliquots were prepared and stored at −80° C.
(§3) The radioligand competition binding assay was performed in a 200 μL system (96-well plate) containing 100 μL of cell membrane. The concentration of ^3H-flunitrazepam was 1 nM and the concentration of the test compound was in the range of […]. Flumazenil was used as a control. 1 μL of 2 mM flumazenil (final concentration […]) was added to the low signal control well (Low control, LC), and 1 μL of DMSO was added to the high signal control well (High control, HC). The final concentration of target membrane protein was […]. All test compound sample storage solutions were 10 mM. The working concentration of the samples was to dilute all the samples to 0.2 mM with DMSO, followed by 4-fold serial gradient dilutions for a total of 8 concentration gradients. The 96-well plate was sealed with a sealing film, and then incubated on a shaker at room temperature for 1 hour. At the same time, the GF/C filter plate was soaked in soaking buffer (0.3% PEI, stored at 4° C.) for at least 0.5 hours. After the binding incubation was completed, the cells were collected onto a GF/C filter plate using a cell harvester. The plate was washed four times with washing buffer (50 mM Tris-HCl, pH 7.4, stored at 4° C.). After drying in a 50° C. oven for 1 hour, the bottom of the dried GF/C filter plate was sealed. The residual radioactivity on the filter membrane was detected using liquid scintillation counting. 50 μL of scintillation fluid was added to each well, and the plate was sealed. The readings were taken using a Microbeta2. The inhibitory activity of the test sample on the binding of ^3H-flunitrazepam to GABAA receptor membrane proteins was calculated, and the IC50 of each test sample was calculated by dose-effect curve fitting (GraphPad Prism 5 software), and the Ki of the sample was calculated from the IC50, thus evaluating the binding ability of the sample to the various subtypes of GABAA receptors.

human α1β3γ2 receptors = human α1β3γ2 receptors (Homo sapiens (Human), UniProt P14867+P18507); test: 3H-flunitrazepam competition binding, human α1β3γ2 GABAA receptor; details: HEK293 cell membranes, 1 nM 3H-flunitrazepam; read-out: Ki α1
Description: as §1, §2, §3

[1] = biological target: α5-GABAA receptor (α5, β3, γ2 subunits) (Homo sapiens (Human), UniProt P18507+P31644); test: Whole cell patch clamp, inverse agonist efficacy in HEK293 cells expressing α5-GABAA receptor; type: cell-based; details: HEK293, drug 100 nM, GABA 0.05 μM, −60 mV; read-out: Compound inverse agonist efficacy %
Summary of the method: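 Stable HEK293 line co-expressing human α5, β3, γ2 subunits; whole-cell patch clamp at −60 mV, inward current evoked by 0.05 μM GABA, then compound at 100 nM in GABA solution applied. Effect derived from leak, pre- and post-drug GABA currents.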

[2] = Rat pharmacokinetic experiment; type: in vivo; details: for Kp: male, SD, brain / plasma, read-out: B/P (proportion of compounds entering the brain); for Kp / Cmax: rat, po; for Cmax: plasma
Description: The maximum plasma concentration (Cmax) in the rat pharmacokinetic experiment was used to evaluate the absorption of the compounds in rat in vivo. The experimental compound was dissolved and then orally administered by gavage (p.o.) to male SD rats. The rats were fasted overnight before drug administration, and blood was collected via venipuncture at 0.25, 0.5, 1, 2, 4, and 7 hours post dose. Approximately 100 μL blood was collected for each sample; at the same time, the whole brain was taken and homogenized with 3 times the amount of PBS for analysis. The […] method was used to determine drug concentrations in plasma and brain tissue, and the proportion of compounds entering the brain (B/P) was calculated based on the AUC of the compound. Pharmacokinetic parameters were calculated using Phoenix WinNonlin 7.0. The administration vehicle was 5% CMC-Na aqueous solution.

[3] = biological target: human α5β3γ2 receptors (α5-GABAA receptor) (Homo sapiens (Human), UniProt P18507+P31644); test: 3H-flunitrazepam competition binding, human α5β3γ2 GABAA receptor; details: HEK293 cell membranes, 1 nM 3H-flunitrazepam; read-out: α5-GABAAR Ki
Summary of the method: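 HEK293 membranes stably expressing each human receptor subtype ([…]) competed against 1 nM 3H-flunitrazepam in Tris buffer, 1 h at room temperature; flumazenil defined the low-signal control. Eight-point 4-fold test-compound dilutions; GF/C filtration and scintillation counting gave IC50 by curve fitting, converted to Ki.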

human α3β3γ2 receptors = human α3β3γ2 receptors (Homo sapiens (Human), UniProt P18507+P34903); test: 3H-flunitrazepam competition binding, human α3β3γ2 GABAA receptor; details: HEK293 cell membranes, 1 nM 3H-flunitrazepam; read-out: Ki α3
Description: as §1, §2, §3

α5-GABAA receptor = details: GABA 1 μM, highest concentration of L-655,708; cited from earlier work

SMILES	Ki (human α2β3γ2 receptors) [nM]	Ki (human α1β3γ2 receptors) [nM]	inhibition at 0.1 µM [1] [%]	Kp ([2]; 1 mg/kg)	Cmax ([2]; male SD rats, 1 mg/kg) [ng/mL]	Ki [3] [nM]	Ki (human α3β3γ2 receptors) [nM]	Kp ([2]; 3 mg/kg)	Cmax ([2]; male SD rats, 3 mg/kg) [ng/mL]	B/P (proportion of compounds entering the brain) ([2]; male SD rats, p.o., 3 mg/kg, based on AUC) [%]	suppression of the current induced by GABA (α5-GABAA receptor) [%]
Cc1nnn(-c2ccc(C(F)F)cc2)c1COc1ccc(N2CCN(C)C(=O)C2)nn1 [Example 26, 4-(6-((1-(4-(Difluoromethyl)phenyl)-4-methyl-1H-1,2,3-triazol-5-yl)methoxy)pyridazin-3-yl)-1-methylpiperazin-2-one]	45.4	47.8	50.3	0.0336	637	1.32	23.4				
Cc1nnn(-c2ccc(C(F)F)cc2)c1COc1ccc(N2CC(C(=O)NC(C)C)C2)nn1 [Example 155, 1-(6-((1-(4-(Difluoromethyl)phenyl)-4-methyl-1H-1,2,3-triazol-5-yl)methoxy)pyridazin-3-yl)-N-isopropylazetidine-3-carboxamide]	231	389	42.3			5.39	68.7	0.0166	3020		
Cc1nnn(-c2ccc(C(F)F)cc2)c1COc1cnc(N2CCNC(=O)C2)cn1 [Example 169, 4-(5-((1-(4-(Difluoromethyl)phenyl)-4-methyl-1H-1,2,3-triazol-5-yl)methoxy)pyrazin-2-yl)piperazin-2-one]	27.2	73.5	40.5			1.11	26.3		3180	3.81	
O=C1NCCN2CCN(c3ccc(OCc4c(Cl)nnn4-c4ccc(C(F)F)cc4)nn3)C[C@@H]12 [Example 181, (S)-8-(6-((4-Chloro-1-(4-(difluoromethyl)phenyl)-1H-1,2,3-triazol-5-yl)methoxy)pyridazin-3-yl)hexahydro-2H-pyrazino[1,2-a]pyrazin-1(6H)-one]	64.2	140	51.2			1.21	44.6	0.0099	2670		
CCOC(=O)c1ncn2c1[C@@H]1CCCN1C(=O)c1cc(OC)ccc1-2 [L-655,708]											15
